From article PMC3509768 (Journal of medicinal chemistry, 2012)

Assays:
Type in all cases: biochemical
[1] = target: T1, PfMIF (Plasmodium falciparum, UniProt Q8I5C5); assay: biochemical; settings: for PfMIF tautomerase inhibitory activity (active / inactive): result in words
[2] = target: T1, PfMIF; assay: Michaelis-Menten kinetics of 4-HPP tautomerization by PfMIF
[3] = target: T2, huMIF (Homo sapiens, UniProt P14174); assay: Michaelis-Menten kinetics of 4-HPP tautomerization by huMIF
T2 sequence (P14174 2-115 limits assumed): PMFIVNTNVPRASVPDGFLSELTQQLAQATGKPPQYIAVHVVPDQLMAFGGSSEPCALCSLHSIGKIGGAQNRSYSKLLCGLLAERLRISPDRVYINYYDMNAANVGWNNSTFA

Work on `COc1ccc(-c2cc(Oc3cc(C)cc(OC)c3)cc(C)n2)cc1` [Compound 26k] yielded a Ki [1] of about 40 nM.
In the case of `Cc1cc(Oc2cccc(O)c2)nc(-c2ccccc2)n1` [Compound 20], the “times less potent than 25h” value ([1]; ratio of PfMIF Ki values) is reported as “more than 400” and the “PfMIF tautomerase inhibitory activity (active / inactive)” value [1] is reported as “active”.
`COc1cccc(Oc2cc(C)nc(N3CCOCC3)c2)c1` [Compound 25h] showed a Ki [1] of about 40 nM.
For `Oc1ccc(-c2ccc(Oc3cccc(O)c3)cn2)cc1` [Compound 24e], the “PfMIF tautomerase inhibitory activity (active / inactive)” value [1] was “active”.
Compound `O=C(O)C(=O)Cc1ccc(O)cc1` [Compound 4-HPP, 4-hydroxyphenylpyruvate] has a Km ([2]; enolization) of 675 ± 46.9 µM, a kcat ([2]; enolization) of 17.98 ± 0.7 s⁻¹ and a Km ([2]; ketonization) of 187 ± 50.6 µM. The kcat ([2]; ketonization) was 32.90 ± 5.3 s⁻¹, the Km ([3]; enolization) was 1140 ± 216 µM and the kcat ([3]; enolization) was 208.3 ± 19.3 s⁻¹. The Km ([3]; ketonization) was 192 ± 47 µM and the kcat ([3]; ketonization) was 86.62 ± 11.7 s⁻¹.
`COc1cc(C)cc(Oc2cc(C)nc(N3CCOCC3)c2)c1` [Compound 25f] gave a Ki [1] of 1000 nM.
In the case of `COc1cccc(Oc2ccnc(N3CCOCC3)c2)c1` [Compound 23], the “PfMIF tautomerase inhibitory activity (active / inactive)” value [1] is reported as “active”.
With `N#Cc1cccc(Oc2ccc(-c3cccc(O)c3)nc2)c1` [Compound 24j] the “times more potent than the 3-hydroxyl analogue 24d” value ([1]; ratio of PfMIF Ki values) was “roughly 20”.
With `Oc1cccc(Oc2ccc(-c3cccc(O)c3)nc2)c1` [Compound 24d] the “PfMIF tautomerase inhibitory activity (active / inactive)” value [1] was “active”.
